# Results from patent US9932314B2, “Pyrazole compounds and their use as T-type calcium channel blockers” (IDORSIA PHARMACEUTICALS LTD, priority 2015, dated 2018).
# pIC50: −log10 of the molar value.
# Target: T1, voltage-dependent T-type calcium channel subunit alpha-1G (Cav3.2) (Homo sapiens, UniProt O95180)
# T1 construct: expressed in transfected cells; host or cells: HEK293
# Experiment: FLIPR calcium flux assay, HEK293 cells recombinantly expressing Cav3.2
# Assay type: cell-based
# Conditions: Cav3.2-channel, Fluo-4-AM, 3 min incubation, stimulation with 10 mM CaCl2
# In short: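 HEK293 cells stably expressing human Cav3.2 were loaded with Fluo-4-AM. Compounds diluted in TEAC buffer (pH 7.2) were preincubated for 3 min, then Ca2+ entry was triggered by 10 mM final CaCl2. Inhibition curves were fitted sigmoidally to the area under the fluorescence trace.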
# T1 sequence (O95180 whole entry): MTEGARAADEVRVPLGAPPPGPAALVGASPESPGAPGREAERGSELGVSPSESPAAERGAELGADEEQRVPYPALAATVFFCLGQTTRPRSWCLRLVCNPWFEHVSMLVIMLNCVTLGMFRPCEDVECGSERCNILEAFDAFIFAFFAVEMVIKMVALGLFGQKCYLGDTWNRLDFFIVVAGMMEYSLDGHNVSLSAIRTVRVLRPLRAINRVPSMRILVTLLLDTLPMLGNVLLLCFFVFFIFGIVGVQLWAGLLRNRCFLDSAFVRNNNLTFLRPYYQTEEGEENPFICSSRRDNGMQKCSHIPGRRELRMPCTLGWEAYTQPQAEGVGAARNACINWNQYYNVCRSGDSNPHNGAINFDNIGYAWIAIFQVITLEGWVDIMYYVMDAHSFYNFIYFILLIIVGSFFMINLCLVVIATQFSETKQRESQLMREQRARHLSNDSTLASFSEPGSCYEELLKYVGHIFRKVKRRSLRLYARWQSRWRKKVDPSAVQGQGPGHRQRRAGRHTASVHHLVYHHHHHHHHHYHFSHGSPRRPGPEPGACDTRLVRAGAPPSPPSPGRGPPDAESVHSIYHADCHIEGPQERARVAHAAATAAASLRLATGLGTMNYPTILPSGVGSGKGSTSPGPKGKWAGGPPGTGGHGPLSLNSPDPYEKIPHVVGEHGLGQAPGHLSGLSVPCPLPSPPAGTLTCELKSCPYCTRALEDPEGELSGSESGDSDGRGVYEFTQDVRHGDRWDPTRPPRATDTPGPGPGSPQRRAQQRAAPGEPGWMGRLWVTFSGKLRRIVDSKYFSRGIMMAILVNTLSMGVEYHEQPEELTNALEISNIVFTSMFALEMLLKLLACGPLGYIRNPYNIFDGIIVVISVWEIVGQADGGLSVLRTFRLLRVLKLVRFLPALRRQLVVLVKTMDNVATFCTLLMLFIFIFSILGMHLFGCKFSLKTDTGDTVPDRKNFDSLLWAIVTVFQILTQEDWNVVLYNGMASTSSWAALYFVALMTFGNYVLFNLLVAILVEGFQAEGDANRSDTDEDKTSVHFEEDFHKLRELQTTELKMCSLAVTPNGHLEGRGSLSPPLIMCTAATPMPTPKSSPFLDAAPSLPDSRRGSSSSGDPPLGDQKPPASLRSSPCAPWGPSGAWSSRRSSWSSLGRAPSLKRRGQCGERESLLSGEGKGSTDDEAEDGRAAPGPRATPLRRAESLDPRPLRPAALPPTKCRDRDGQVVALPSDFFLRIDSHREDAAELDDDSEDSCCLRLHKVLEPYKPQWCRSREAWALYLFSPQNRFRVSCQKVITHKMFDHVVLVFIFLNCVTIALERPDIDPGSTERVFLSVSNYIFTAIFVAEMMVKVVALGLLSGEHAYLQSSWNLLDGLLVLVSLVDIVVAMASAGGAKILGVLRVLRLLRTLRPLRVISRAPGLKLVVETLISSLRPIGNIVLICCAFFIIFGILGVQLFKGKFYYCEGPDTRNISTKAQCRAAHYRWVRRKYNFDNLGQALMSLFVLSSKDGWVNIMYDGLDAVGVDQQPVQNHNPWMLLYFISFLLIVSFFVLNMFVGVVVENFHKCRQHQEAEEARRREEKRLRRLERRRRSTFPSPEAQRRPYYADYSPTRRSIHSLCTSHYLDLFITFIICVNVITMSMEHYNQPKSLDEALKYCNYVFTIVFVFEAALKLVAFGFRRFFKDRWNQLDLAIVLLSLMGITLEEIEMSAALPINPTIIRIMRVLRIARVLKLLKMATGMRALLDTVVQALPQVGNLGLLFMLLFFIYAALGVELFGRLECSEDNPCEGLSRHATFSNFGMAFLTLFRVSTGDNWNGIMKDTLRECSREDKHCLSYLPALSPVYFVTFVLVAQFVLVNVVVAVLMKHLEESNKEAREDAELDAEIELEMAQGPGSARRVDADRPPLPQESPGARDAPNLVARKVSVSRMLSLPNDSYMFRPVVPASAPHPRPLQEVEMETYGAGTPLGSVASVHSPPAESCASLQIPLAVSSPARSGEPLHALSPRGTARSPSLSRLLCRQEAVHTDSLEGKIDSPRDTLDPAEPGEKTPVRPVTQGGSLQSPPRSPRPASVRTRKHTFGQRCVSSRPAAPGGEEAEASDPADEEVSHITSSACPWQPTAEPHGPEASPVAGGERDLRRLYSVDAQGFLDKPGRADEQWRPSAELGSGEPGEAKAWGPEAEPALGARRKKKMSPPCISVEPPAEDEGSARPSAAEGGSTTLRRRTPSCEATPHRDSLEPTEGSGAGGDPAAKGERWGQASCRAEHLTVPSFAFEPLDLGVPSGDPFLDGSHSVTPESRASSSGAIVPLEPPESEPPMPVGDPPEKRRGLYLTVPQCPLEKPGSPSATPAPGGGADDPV
row,SMILES,pIC50
1,"N#Cc1c(F)cc(Cn2ccc(NC(=O)Cc3ccc(OCC4(F)COC4)cc3)n2)cc1F [Example 361, N-[1-(4-Cyano-3,5-difluoro-benzyl)-1H-pyrazol-3-yl]-2-[4-(3-fluoro-oxetan-3-ylmethoxy)-phenyl]-acetamide]",7.10
2,"CN(C)c1ccc(CC(=O)Nc2ccn(Cc3ccc(F)cc3)n2)cn1 [Example 4, 2-(6-Dimethylamino-pyridin-3-yl)-N-[1-(4-fluoro-benzyl)-1H-pyrazol-3-yl]-acetamide]",7.09
3,"N#Cc1ccc(Cn2ccc(NC(=O)Cc3ccc(C4(C#N)CC(F)(F)C4)cc3)n2)nc1 [Example 390, 2-[4-(1-Cyano-3,3-difluoro-cyclobutyl)-phenyl]-N-[1-(5-cyano-pyridin-2-ylmethyl)-1H-pyrazol-3-yl]-acetamide]",7.33
4,"CC(C)(C)c1ccc(CC(=O)Nc2ccn(Cc3cc(C#N)c(F)cn3)n2)cc1 [Example 400, 2-(4-tert-Butyl-phenyl)-N-[1-(4-cyano-5-fluoro-pyridin-2-ylmethyl)-1H-pyrazol-3-yl]-acetamide]",7.31
5,"CC1(COc2ccc(CC(=O)Nc3ccn(Cc4ccc(F)c(C#N)c4)n3)cc2)CC(F)(F)C1 [Example 311, N-[1-(3-Cyano-4-fluoro-benzyl)-1H-pyrazol-3-yl]-2-[4-(3,3-difluoro-1-methyl-cyclobutylmethoxy)-phenyl]-acetamide]",7.09
6,"CN(C)c1ccc(CC(=O)Nc2ccn(Cc3ccc(F)c(OC(F)(F)F)c3)n2)cc1 [Example 22, 2-(4-Dimethylamino-phenyl)-N-[1-(4-fluoro-3-trifluoromethoxy-benzyl)-1H-pyrazol-3-yl]-acetamide]",8.30
7,"Cc1ccc(Cn2ccc(NC(=O)Cc3ccc(OC4CC(F)(F)C4)cc3)n2)nc1C#N [Example 374, N-[1-(6-Cyano-5-methyl-pyridin-2-ylmethyl)-1H-pyrazol-3-yl]-2-[4-(3,3-difluoro-cyclobutoxy)-phenyl]-acetamide]",6.97
8,"N#Cc1c(F)cc(Cn2ccc(NC(=O)Cc3ccc(C4(C(F)(F)F)CC4)cc3)n2)cc1F [Example 350, N-[1-(4-Cyano-3,5-difluoro-benzyl)-1H-pyrazol-3-yl]-2-[4-(1-trifluoromethyl-cyclopropyl)-phenyl]-acetamide]",7.16
9,"COc1ccc(Cn2ccc(NC(=O)Cc3ccc(OC4CCC4)cc3)n2)cc1 [Example 199, 2-(4-Cyclobutoxy-phenyl)-N-[1-(4-methoxy-benzyl)-1H-pyrazol-3-yl]-acetamide]",7.13
10,"CC(C)(C#N)c1ccc(CC(=O)Nc2ccn(Cc3ccc(C#N)cn3)n2)cc1 [Example 337, 2-[4-(Cyano-dimethyl-methyl)-phenyl]-N-[1-(5-cyano-pyridin-2-ylmethyl)-1H-pyrazol-3-yl]-acetamide]",6.77
11,"O=C(Cc1ccc(OC2CCC2)cc1)Nc1ccn(Cc2ccc(F)cn2)n1 [Example 200, 2-(4-Cyclobutoxy-phenyl)-N-[1-(5-fluoro-pyridin-2-ylmethyl)-1H-pyrazol-3-yl]-acetamide]",7.17
12,"CO[C@H](C)c1ccc(CC(=O)Nc2ccn(Cc3ccc(F)c(F)c3)n2)cc1 (single isomer, unassigned) [Example 232]",8.24
13,"CC(C)c1ccc(CC(=O)Nc2ccn(Cc3ccc(N4CCCC4)cn3)n2)cc1 [Example 395, 2-(4-Isopropyl-phenyl)-N-[1-(5-pyrrolidin-1-yl-pyridin-2-ylmethyl)-1H-pyrazol-3-yl]-acetamide]",6.50
14,"CC(C)c1cn(C)c2ccc(CC(=O)Nc3ccn(Cc4ccc(C#N)cn4)n3)cc12 [Example 324, N-[1-(5-Cyano-pyridin-2-ylmethyl)-1H-pyrazol-3-yl]-2-(3-isopropyl-1-methyl-1H-indol-5-yl)-acetamide]",7.51
15,"COCCOc1ccc(Cn2ccc(NC(=O)Cc3ccc(C(C)C)cc3)n2)nc1 [Example 104, 2-(4-Isopropyl-phenyl)-N-{1-[5-(2-methoxy-ethoxy)-pyridin-2-ylmethyl]-1H-pyrazol-3-yl}-acetamide]",5.34
16,"CC(C)(C)c1ccc(CC(=O)Nc2ccn(Cc3ccc(C#N)c(F)c3)n2)cc1 [Example 264, 2-(4-tert-Butyl-phenyl)-N-[1-(4-cyano-3-fluoro-benzyl)-1H-pyrazol-3-yl]-acetamide]",8.27
17,"CN(C)c1ccc(CC(=O)Nc2ccn(Cc3ccc(C#N)cc3)n2)cn1 [Example 15, N-[1-(4-Cyano-benzyl)-1H-pyrazol-3-yl]-2-(6-dimethylamino-pyridin-3-yl)-acetamide]",6.43
18,"O=C(Cc1ccc(-c2ccccn2)cc1)Nc1ccn(Cc2ccc(F)cc2)n1 [Example 82, N-[1-(4-Fluoro-benzyl)-1H-pyrazol-3-yl]-2-(4-pyridin-2-yl-phenyl)-acetamide]",7.48
19,"CN(c1ccc(CC(=O)Nc2ccn(Cc3ccc(F)cc3)n2)cn1)C1CC1 [Example 167, 2-[6-(Cyclopropyl(methyl)amino)-pyridin-3-yl]-N-[1-(4-fluoro-benzyl)-1H-pyrazol-3-yl]-acetamide]",7.68
20,"O=C(Cc1ccc(N2CC[C@@H](F)C2)nc1)Nc1ccn(Cc2ccc(F)cc2)n1 [Example 141, N-[1-(4-Fluoro-benzyl)-1H-pyrazol-3-yl]-2-[6-((R)-3-fluoro-pyrrolidin-1-yl)-pyridin-3-yl]-acetamide]",7.46
21,"CC(C)c1ccc(CC(=O)Nc2ccn(Cc3cc(C#N)c(F)cn3)n2)cc1 [Example 401, N-[1-(4-Cyano-5-fluoro-pyridin-2-ylmethyl)-1H-pyrazol-3-yl]-2-(4-isopropyl-phenyl)-acetamide]",6.90
22,"CN(C)c1ccc(CC(=O)Nc2ccn(Cc3cc(F)c(F)c(F)c3)n2)cc1 [Example 24, 2-(4-Dimethylamino-phenyl)-N-[1-(3,4,5-trifluoro-benzyl)-1H-pyrazol-3-yl]-acetamide]",7.89
23,"COc1c(F)cc(Cn2ccc(NC(=O)Cc3ccc(N(C)C)nc3)n2)cc1F [Example 43, N-[1-(3,5-Difluoro-4-methoxy-benzyl)-1H-pyrazol-3-yl]-2-(6-dimethylamino-pyridin-3-yl)-acetamide]",7.09
24,"N#Cc1ccc(Cn2ccc(NC(=O)Cc3ccc(OCC4CC(F)(F)C4)cc3)n2)cc1F [Example 289, N-[1-(4-Cyano-3-fluoro-benzyl)-1H-pyrazol-3-yl]-2-[4-(3,3-difluoro-cyclobutylmethoxy)-phenyl]-acetamide]",7.64
25,"CC(C)(c1ccc(CC(=O)Nc2ccn(Cc3ccc(C#N)cn3)n2)cc1)C(F)(F)F [Example 376, N-[1-(5-Cyano-pyridin-2-ylmethyl)-1H-pyrazol-3-yl]-2-[4-(2,2,2-trifluoro-1,1-dimethyl-ethyl)-phenyl]-acetamide]",7.70
26,"N#Cc1ccc(Cn2ccc(NC(=O)Cc3ccc(OC4CCC4)cc3)n2)cc1 [Example 197, N-[1-(4-Cyano-benzyl)-1H-pyrazol-3-yl]-2-(4-cyclobutoxy-phenyl)-acetamide]",7.27
27,"Cn1ncc2ccc(CC(=O)Nc3ccn(Cc4cc(F)c(C#N)c(F)c4)n3)cc21 [Example 346, N-[1-(4-Cyano-3,5-difluoro-benzyl)-1H-pyrazol-3-yl]-2-(1-methyl-1H-indazol-6-yl)-acetamide]",6.80
28,"O=C(Cc1ccc(-c2ncon2)cc1)Nc1ccn(Cc2ccc(F)c(F)c2)n1 [Example 236, N-[1-(3,4-Difluoro-benzyl)-1H-pyrazol-3-yl]-2-(4-[1,2,4]oxadiazol-3-yl-phenyl)-acetamide]",7.74
